What was measured:
Assay in all cases: relative viability (nuclei count vs DMSO), 5 days (fraction); higher = more cells survive
[1] = compound: CC(C)CCN1c2nc(Nc3cc(F)c(O)c(F)c3)ncc2N(C)C(=O)C1C [BI-D1870] + O=C(CCCCCCC(=O)Nc1ccccc1)NO [Vorinostat] (partner 1 µM)
Procedure, shortened: (§1)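 Relative viability is defined as nuclei in treated wells over nuclei in vehicle wells. Duplicate plates were run and medians reported. Lung cancer cell lines in 1536-well plates were dosed by pin tool one day after seeding, with one drug or with a fixed anchor-drug dose plus five library-drug doses (not always all listed) in √10 steps, and nuclei were counted after 5 days.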

[2] = compound: CC(C)CCN1c2nc(Nc3cc(F)c(O)c(F)c3)ncc2N(C)C(=O)C1C [BI-D1870] + CC(C)C[C@H](NC(=O)[C@H](Cc1ccccc1)NC(=O)c1cnccn1)B(O)O [Bortezomib] (partner 0.002 µM)
Procedure, shortened: as §1

[3] = compound: O=c1ncccn1[C@@H]1O[C@H](CO)[C@@H](O)[C@H]1O [Zebularine] + N=C(N)NC(=N)NCCc1ccccc1 [Phenformin] (partner 250 µM)
Procedure, shortened: as §1

[4] = compound: O=c1ncccn1[C@@H]1O[C@H](CO)[C@@H](O)[C@H]1O [Zebularine] + NC(=O)Nc1cc(-c2cccc(F)c2)sc1C(=O)N[C@H]1CCCNC1 [AZD7762] (partner 0.2 µM)
Procedure, shortened: as §1

Row | Cell Line | relative viability ([1]; first compound 0.04 µM) | relative viability ([1]; first compound 0.1265 µM) | relative viability ([1]; first compound 0.4 µM) | relative viability ([1]; first compound 1.265 µM) | relative viability ([1]; first compound 4 µM) | relative viability ([2]; first compound 0.04 µM) | relative viability ([2]; first compound 0.1265 µM) | relative viability ([2]; first compound 0.4 µM) | relative viability ([2]; first compound 1.265 µM) | relative viability ([2]; first compound 4 µM) | relative viability ([3]; first compound 1 µM) | relative viability ([3]; first compound 3.162 µM) | relative viability ([3]; first compound 10 µM) | relative viability ([3]; first compound 31.62 µM) | relative viability ([3]; first compound 100 µM) | relative viability ([4]; first compound 1 µM) | relative viability ([4]; first compound 10 µM) | relative viability ([4]; first compound 31.62 µM) | relative viability ([4]; first compound 100 µM) | relative viability ([4]; first compound 3.162 µM)
1 | COR-L23 | 0.615 | 0.402 | 0.494 | 0.5 | 0.269 | 1.28 | 0.844 | 0.979 | 0.926 | 1.03 | 0.468 | 0.438 | 0.312 | 0.284 | 0.165 | – | – | – | – | –
2 | ABC-1 | 1.2 | 1.01 | 1.07 | 1.2 | 0.535 | 0.306 | 0.353 | 0.232 | 0.298 | 0.244 | 0.237 | 0.229 | 0.255 | 0.179 | 0.222 | 0.816 | 0.554 | 0.538 | 0.54 | –
3 | NCI-H522 | 1.02 | 1.09 | 1.01 | 0.907 | 0.94 | – | – | – | – | – | 0.589 | 0.631 | 0.622 | 0.656 | 0.65 | 0.76 | 0.767 | 0.858 | 0.841 | 0.821
4 | SW 900 | 0.504 | 0.537 | 0.582 | 0.725 | 0.466 | – | – | – | – | – | 0.809 | 0.559 | 0.349 | 0.65 | 0.407 | 0.65 | – | 0.818 | 0.832 | 0.57
5 | A549 | – | – | – | – | – | – | – | – | – | – | 0.209 | 0.171 | 0.169 | 0.131 | 0.122 | – | – | – | – | –
6 | NCI-H1792 | – | – | – | – | – | 1.03 | 0.915 | 0.942 | 1.13 | 0.841 | 0.44 | 0.281 | 0.119 | 0.258 | 0.189 | 0.758 | 0.332 | 0.324 | 0.215 | 0.525
7 | NCI-H1703 | – | – | – | – | – | 0.377 | 0.315 | 0.353 | 0.288 | 0.21 | – | – | – | – | – | 0.144 | 0.118 | 0.142 | 0.103 | 0.173
8 | SK-LU-1 | 0.823 | 0.615 | 0.71 | 0.625 | 0.35 | 1.16 | 1.07 | 1.04 | 1.49 | 0.823 | 0.633 | 0.552 | 0.313 | 0.493 | 0.33 | – | – | – | – | –
9 | COR-L 105 | 0.804 | 0.837 | 0.77 | 0.875 | 0.765 | 0.835 | 0.831 | 0.88 | 0.774 | 0.713 | 0.581 | 0.488 | 0.314 | 0.575 | 0.53 | – | – | – | – | –
10 | Calu-6 | – | – | – | – | – | 0.972 | 0.914 | 1.05 | 0.845 | 0.361 | – | – | – | – | – | – | – | – | – | –
11 | NCI-H358 | 0.834 | 0.61 | 0.519 | 0.386 | 0.229 | – | – | – | – | – | 0.354 | 0.261 | 0.209 | 0.227 | 0.154 | 0.591 | 0.484 | 0.451 | 0.333 | 0.386
12 | NCI-H1944 | 0.894 | 0.5 | 0.484 | 0.57 | 0.405 | – | – | – | – | – | 0.226 | 0.188 | 0.174 | 0.19 | 0.146 | 0.598 | 0.451 | 0.525 | 0.258 | 0.537
13 | NCI-H1648 | 0.345 | 0.333 | – | 0.626 | 0.697 | – | – | – | – | – | – | – | – | – | – | 0.587 | 0.543 | 0.615 | 0.6 | 0.71
14 | EBC-1 | – | – | – | – | – | 0.685 | 0.435 | 0.417 | 0.323 | 0.123 | – | – | – | – | – | – | – | – | – | –
15 | NCI-H1299 | – | – | – | – | – | 1 | 0.985 | 1.02 | 0.959 | 0.839 | – | – | – | – | – | – | – | – | – | –
16 | NCI-H2228 | 0.889 | 0.512 | 0.824 | 0.959 | 0.32 | 1.36 | 0.999 | 1.37 | 1.05 | 0.401 | 0.313 | 0.313 | 0.182 | 0.323 | 0.221 | – | – | – | – | –
17 | NCI-H2342 | 0.806 | 0.61 | 0.718 | 0.812 | 0.966 | – | – | – | – | – | 0.635 | 0.528 | 0.49 | 0.73 | 0.59 | 0.512 | 0.399 | 0.505 | 0.429 | 0.415
18 | IA-LM | 1.02 | 0.927 | 0.913 | 1.08 | 0.874 | 1.05 | 0.842 | 0.756 | 0.764 | 0.204 | – | – | – | – | – | – | – | – | – | –
19 | SK-MES-1 | 1.16 | 0.905 | 0.933 | 0.949 | 0.691 | – | – | – | – | – | 0.755 | 0.693 | 0.45 | 0.362 | 0.226 | – | – | – | – | –
20 | NCI-H2170 | 1.01 | 0.786 | 0.786 | 0.783 | 0.675 | – | – | – | – | – | 0.422 | 0.424 | 0.376 | 0.41 | 0.243 | 0.914 | 0.771 | 0.938 | 0.393 | 0.982
21 | SW 1573 | 1.07 | 0.6 | 0.99 | 0.619 | 0.448 | 1.08 | 0.907 | 0.883 | 0.986 | 0.577 | 0.379 | 0.404 | – | 0.406 | 0.227 | – | – | – | – | –
22 | NCI-H661 | 0.815 | 0.806 | 0.764 | 0.691 | 0.451 | 0.801 | 0.67 | 0.695 | 1.01 | 0.808 | 0.279 | 0.269 | 0.28 | 0.275 | 0.264 | – | – | – | – | –
23 | NCI-H1793 | 0.914 | 0.718 | 0.615 | 1.04 | 0.606 | – | – | – | – | – | 0.4 | 0.39 | – | 0.237 | 0.168 | 0.499 | 0.326 | 0.407 | 0.359 | 0.676
24 | NCI-H520 | 0.716 | 0.755 | 0.649 | 0.464 | 0.198 | 0.618 | 0.521 | 0.525 | 0.542 | 0.309 | 0.76 | 0.6 | 0.313 | 0.332 | 0.206 | – | – | – | – | –
25 | NCI-H2023 | 0.795 | 0.507 | 0.571 | 0.643 | 0.457 | 1.2 | 0.901 | 0.957 | 0.95 | 0.647 | 0.475 | 0.443 | 0.213 | 0.23 | 0.208 | – | – | – | – | –
26 | NCI-H2009 | 0.776 | 0.629 | 0.76 | 0.599 | 0.461 | 1.03 | 0.934 | 1.01 | 0.866 | 0.246 | 0.515 | 0.483 | 0.425 | 0.435 | 0.336 | – | – | – | – | –
